Laboratory results reported in patent US9321762B2, “Quinazoline compounds, method for preparing the same and use thereof” (DEVELOPMENT CENTER FOR BIOTECHNOLOGY, priority 2013, dated 2016).
Where two headings read alike, the source gives them in different places.

Key:
B-Raf kinase = molecular target: T1, B-Raf kinase (Homo sapiens, UniProt P15056); assay: B-Raf kinase assay ([33P] incorporation into MEK1(K97R)); format: biochemical; conditions: class symbols; 8 μM ATP; read-out: IC50 against B-Raf kinase
T1 construct: purchased Upstate Biotechnology
T1 sequence (P15056 whole entry): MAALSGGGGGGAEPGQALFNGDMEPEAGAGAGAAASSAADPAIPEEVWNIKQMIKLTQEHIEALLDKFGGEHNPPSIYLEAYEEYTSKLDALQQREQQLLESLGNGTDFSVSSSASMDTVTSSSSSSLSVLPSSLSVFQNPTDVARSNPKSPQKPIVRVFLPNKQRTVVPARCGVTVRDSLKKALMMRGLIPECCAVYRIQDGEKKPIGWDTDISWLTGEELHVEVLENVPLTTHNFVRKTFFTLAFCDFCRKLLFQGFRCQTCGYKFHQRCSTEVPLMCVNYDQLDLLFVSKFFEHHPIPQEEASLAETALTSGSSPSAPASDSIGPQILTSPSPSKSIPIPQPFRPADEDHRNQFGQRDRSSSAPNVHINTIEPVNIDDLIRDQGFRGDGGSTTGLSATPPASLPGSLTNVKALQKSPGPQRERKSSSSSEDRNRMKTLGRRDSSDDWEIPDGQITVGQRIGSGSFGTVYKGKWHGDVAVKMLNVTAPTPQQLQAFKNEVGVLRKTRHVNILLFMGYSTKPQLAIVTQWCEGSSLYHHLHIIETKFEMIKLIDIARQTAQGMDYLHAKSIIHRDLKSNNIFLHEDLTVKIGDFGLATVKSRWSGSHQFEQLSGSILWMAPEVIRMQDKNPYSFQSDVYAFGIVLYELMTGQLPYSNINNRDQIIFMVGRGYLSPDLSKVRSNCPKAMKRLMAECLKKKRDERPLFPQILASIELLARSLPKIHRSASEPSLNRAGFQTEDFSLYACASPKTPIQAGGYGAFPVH
In short: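 Recombinant B-Raf (5 ng) phosphorylating 500 ng MEK1(K97R) with 8 μM ATP plus [33P]ATP, pH 7.5 Tris buffer, 30 min at 30 °C. Radiolabel incorporation counted by filter-binding scintillation; IC50 from 3-fold serial dilutions run in duplicate.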

B-Raf(V600E) kinase = molecular target: T2, B-Raf(V600E) kinase (Homo sapiens, UniProt P15056, V600E); assay: B-Raf(V600E) kinase assay ([33P] incorporation into MEK1(K97R)); format: biochemical; conditions: class symbols; 8 μM ATP; read-out: IC50 against B-Raf(V600E) kinase
T2 construct: purchased Upstate Biotechnology
T2 sequence (P15056 whole entry V600E): as the sequence (P15056 whole entry) above, with V600E counted along it
In short: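 Recombinant B-Raf(V600E) (5 ng) phosphorylating MEK1(K97R) (500 ng) with 8 μM ATP plus [33P]ATP in Tris/HCl pH 7.5 buffer, 30 min at 30 °C. Acid-stopped reactions were filter-captured and counted by scintillation; IC50 from 3-fold serial dilutions run in duplicate.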

C-Raf kinase = molecular target: T3, C-Raf kinase (Homo sapiens, UniProt P04049); assay: C-Raf kinase assay ([33P] incorporation into MEK1(K97R)); format: biochemical; conditions: class symbols; 8 μM ATP; read-out: IC50 against C-Raf kinase
T3 construct: purchased Upstate Biotechnology
T3 sequence (P04049 whole entry): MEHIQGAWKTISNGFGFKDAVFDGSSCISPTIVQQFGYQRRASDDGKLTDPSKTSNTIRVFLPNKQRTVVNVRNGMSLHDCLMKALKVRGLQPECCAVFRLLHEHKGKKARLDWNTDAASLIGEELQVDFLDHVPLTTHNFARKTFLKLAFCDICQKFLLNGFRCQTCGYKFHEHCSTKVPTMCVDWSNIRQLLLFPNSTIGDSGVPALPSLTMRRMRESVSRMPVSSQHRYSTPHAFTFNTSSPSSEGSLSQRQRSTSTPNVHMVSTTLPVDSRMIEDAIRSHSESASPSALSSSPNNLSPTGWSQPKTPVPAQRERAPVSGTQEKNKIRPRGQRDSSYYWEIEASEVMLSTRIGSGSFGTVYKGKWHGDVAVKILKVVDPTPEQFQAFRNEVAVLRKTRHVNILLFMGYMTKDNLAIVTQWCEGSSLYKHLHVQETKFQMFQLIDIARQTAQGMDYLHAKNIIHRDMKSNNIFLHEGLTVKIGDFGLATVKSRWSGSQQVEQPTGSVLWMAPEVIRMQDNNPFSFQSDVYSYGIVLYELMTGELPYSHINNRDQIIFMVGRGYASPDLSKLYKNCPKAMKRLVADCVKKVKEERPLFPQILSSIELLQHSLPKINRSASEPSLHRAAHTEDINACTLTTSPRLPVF
In short: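 Recombinant C-Raf (2 ng) phosphorylated MEK1(K97R) (500 ng) with 8 μM ATP plus [33P]ATP in Tris pH 7.5 buffer for 30 min at 30 °C. Reactions were stopped with phosphoric acid, filtered and counted by scintillation. IC50 values came from 3-fold serial dilutions run in duplicate.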

VEGFR2 kinase = molecular target: T4, VEGFR2 kinase (Homo sapiens, UniProt P35968); assay: VEGFR2 radiometric kinase assay; format: biochemical; conditions: given as bound; 100 μM ATP; read-out: Inhibition activity, IC50 VEGFR2
T4 construct: VEGFR2 kinase domain alone, Millipore; purchased Millipore
T4 sequence (P35968 834-1162 limits assumed): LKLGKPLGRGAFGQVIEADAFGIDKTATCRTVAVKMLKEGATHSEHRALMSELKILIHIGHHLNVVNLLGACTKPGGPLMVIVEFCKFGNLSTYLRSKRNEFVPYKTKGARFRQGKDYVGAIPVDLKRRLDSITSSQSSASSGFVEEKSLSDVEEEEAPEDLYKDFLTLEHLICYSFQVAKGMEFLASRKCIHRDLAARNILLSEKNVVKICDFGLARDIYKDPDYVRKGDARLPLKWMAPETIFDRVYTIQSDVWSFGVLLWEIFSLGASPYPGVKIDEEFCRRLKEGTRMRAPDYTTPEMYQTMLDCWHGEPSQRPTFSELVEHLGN
In short: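 Recombinant human VEGFR2 kinase domain (6.25 ng) phosphorylating poly(Glu-Tyr) 4:1 with 100 μM ATP plus [33P]ATP, in MOPS buffer pH 7.0, for 30 min at 30° C. Phosphoric-acid-stopped reactions were filter-captured and counted by scintillation for inhibition and IC50.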

EGFR kinase = molecular target: T5, EGFR kinase (Homo sapiens, UniProt P00533); assay: EGFR radiometric kinase assay; format: biochemical; conditions: 100 μM ATP, read-out: Inhibition activity, IC50 EGFR
T5 construct: EGFR kinase domain alone, Millipore; purchased Millipore
T5 sequence (P00533 712-979 limits assumed): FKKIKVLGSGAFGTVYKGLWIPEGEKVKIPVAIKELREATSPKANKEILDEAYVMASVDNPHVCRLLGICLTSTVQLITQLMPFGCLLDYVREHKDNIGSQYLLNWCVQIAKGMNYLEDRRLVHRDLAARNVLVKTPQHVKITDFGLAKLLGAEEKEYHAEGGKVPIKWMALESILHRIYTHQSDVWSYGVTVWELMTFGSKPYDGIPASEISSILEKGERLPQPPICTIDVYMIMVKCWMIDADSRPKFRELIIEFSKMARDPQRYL
In short: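 Recombinant EGFR kinase domain (25 ng) with poly(Glu-Tyr) substrate in pH 7.0 MOPS buffer with 10 mM MnCl2, 100 μM ATP plus [^33P]ATP. Reaction 30 min at 30 °C, stopped with phosphoric acid; filter-bound radioactivity counted by scintillation.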

[1] = tested on: A375 melanoma cells and COLO205 colon cancer cells; assay: Cell proliferation assay (CellTiter-96); format: cell-based; conditions: Homo sapiens; A375 or COLO205, 72 hours treatment; read-out: Cytotoxicity IC50 for A375 or COLO205
In short: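 B-Raf(V600E) mutant A375 and COLO205 cells in DMEM with 10% FCS, plated 24 h, then given varying compound concentrations for 72 h at 37 °C. Viability by CellTiter-96 Aqueous One reagent (4 h), absorbance at 490 nm.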

Structure (SMILES) | IC50 (B-Raf kinase) [nM] | IC50 (B-Raf(V600E) kinase) [nM] | IC50 (C-Raf kinase) [nM] | IC50 (VEGFR2 kinase) [nM] | IC50 (EGFR kinase; given as bound) [nM] | IC50 [1] [nM] | IC50 (EGFR kinase; class symbols) [nM]
CCCS(=O)(=O)Nc1ccc(F)c(Nc2ncnc3ccc(-c4ccnc(OCCN(C)C)c4)cc23)c1F [compound 45, N-(3-(6-(2-(2-(dimethylamino)ethoxy)-pyridin-4-yl)quinazolin-4-ylamino)-2,4-difluorophenyl)propane-1-sulfonamide] | < 300 | < 300 | 1000 to 10000 | > 3000 | > 3000 | < 2000 | 
CCCS(=O)(=O)Nc1ccc(F)c(Nc2ncnc3ccc(-c4ccc(OC)nc4)cc23)c1F [compound 27, N-(2,4-difluoro-3-(6-(6-methoxypyridin-3-yl)quinazolin-4-ylamino)phenyl)propane-1-sulfonamide] | 300 to 1000 | < 300 | < 300 | > 3000 |  | < 2000 | 1000 to 3000
